Test results taken from the NIST ThermoML archive (doi:10.1021/je060411g).

Experiment: molar heat capacity at constant pressure
Settings: 101.33 kPa

CCC(O)CC [3-pentanol]
Settings | molar heat capacity at constant pressure [J/K/mol]
152.99 K, Liquid | 150.52
154.56 K, Crystal | 105.87
155.94 K, Liquid | 150.86
156.51 K, Crystal | 107.42
158.46 K, Crystal | 108.86
158.9 K, Liquid | 151.16
160 K, Crystal | 118.8
160.42 K, Crystal | 110.34
161.85 K, Liquid | 151.55
162.38 K, Crystal | 111.71
164.37 K, Crystal | 103.35
164.81 K, Liquid | 152.15
166.37 K, Crystal | 115.34
167.78 K, Liquid | 153.56
168.31 K, Crystal | 115.72
170 K, Crystal | 110.3
170.23 K, Crystal | 116.98
170.76 K, Liquid | 159.22
172.17 K, Crystal | 118.28
174.1 K, Crystal | 119.45
176.01 K, Crystal | 120.74
177.92 K, Crystal | 121.98
179.81 K, Crystal | 123.05
180 K, Crystal | 123.2
181.69 K, Crystal | 124.1
183.56 K, Crystal | 125.1
185.42 K, Crystal | 126.2
187.27 K, Crystal | 127.45
189.1 K, Crystal | 129.05
190 K, Crystal | 129.8
190.93 K, Crystal | 130.67
191.18 K, Crystal | 146.69
192.74 K, Crystal | 132.33
193.08 K, Crystal | 133.23
194.53 K, Crystal | 134.71
194.98 K, Crystal | 136.27
196.31 K, Crystal | 137.6
197.93 K, Crystal | 143.45
198.06 K, Crystal | 141.76
200 K, Crystal | 155.5
206.59 K, Liquid | 163.08
206.86 K, Liquid | 162.81
208.54 K, Liquid | 163.45
209.46 K, Liquid | 164.31
210 K, Liquid | 164.2
210.2 K, Liquid | 164.21
211.87 K, Liquid | 164.95
212.32 K, Liquid | 165.57
213.52 K, Liquid | 165.62
215.16 K, Liquid | 167.02
215.17 K, Liquid | 166.57
216.82 K, Liquid | 167.31
217.99 K, Liquid | 168.45
218.46 K, Liquid | 168.22
220 K, Liquid | 169.1
220.1 K, Liquid | 169.14
220.8 K, Liquid | 170.05
221.73 K, Liquid | 170.07
223.36 K, Liquid | 170.87
223.59 K, Liquid | 171.64
224.98 K, Liquid | 171.87
226.37 K, Liquid | 173.5
226.59 K, Liquid | 172.95
228.2 K, Liquid | 173.95
229.13 K, Liquid | 175.38
229.81 K, Liquid | 174.99
230 K, Liquid | 175.1
231.41 K, Liquid | 176.24
231.88 K, Liquid | 177.23
233 K, Liquid | 177.29
234.59 K, Liquid | 178.66
234.61 K, Liquid | 179.15
236.17 K, Liquid | 179.8
237.32 K, Liquid | 181.22
237.75 K, Liquid | 180.73
239.32 K, Liquid | 182.03
240 K, Liquid | 183.5
240.01 K, Liquid | 183.55
240.89 K, Liquid | 183.27
242.45 K, Liquid | 184.57
242.69 K, Liquid | 185.78
244 K, Liquid | 185.93
245.34 K, Liquid | 188.15
245.55 K, Liquid | 187.34
247.09 K, Liquid | 188.71
247.98 K, Liquid | 190.62
248.63 K, Liquid | 190.19
250 K, Liquid | 191.4
250.16 K, Liquid | 191.69
250.61 K, Liquid | 193.22
251.68 K, Liquid | 193.3
253.2 K, Liquid | 194.61
253.21 K, Liquid | 195.73
254.72 K, Liquid | 195.45
255.8 K, Liquid | 198.08
256.23 K, Liquid | 197.32
257.73 K, Liquid | 198.94
258.37 K, Liquid | 201.08
259.23 K, Liquid | 200.52
260 K, Liquid | 201
260.72 K, Liquid | 202.41
260.93 K, Liquid | 204.02
262.21 K, Liquid | 203.99
263.46 K, Liquid | 207.15
263.69 K, Liquid | 205.59
265.16 K, Liquid | 207.37
265.98 K, Liquid | 210.2
266.63 K, Liquid | 209.14
268.09 K, Liquid | 210.93
268.47 K, Liquid | 213.3
269.54 K, Liquid | 212.66
270 K, Liquid | 213.6
270.95 K, Liquid | 216.47
270.99 K, Liquid | 214.5
272.44 K, Liquid | 216.21
273.41 K, Liquid | 219.31
273.87 K, Liquid | 218
275.3 K, Liquid | 219.86
275.85 K, Liquid | 222.84
276.73 K, Liquid | 221.67
278.15 K, Liquid | 223.45
278.28 K, Liquid | 226.05
279.56 K, Liquid | 225.24
280 K, Liquid | 227
280.68 K, Liquid | 229.31
280.97 K, Liquid | 227.16
282.37 K, Liquid | 228.87
283.07 K, Liquid | 232.43
283.76 K, Liquid | 230.71
285.15 K, Liquid | 232.47
285.44 K, Liquid | 235.64
286.54 K, Liquid | 234.44
287.8 K, Liquid | 239.08
287.92 K, Liquid | 236.08
289.29 K, Liquid | 237.78
290 K, Liquid | 238.7
290.66 K, Liquid | 239.56
292.02 K, Liquid | 241.24
293.38 K, Liquid | 242.8
294.74 K, Liquid | 244.64
296.09 K, Liquid | 246.1
297.43 K, Liquid | 247.9
298.15 K, Liquid | 248.7
298.77 K, Liquid | 249.27
300 K, Liquid | 250.7
300.11 K, Liquid | 250.87
301.44 K, Liquid | 252.15
302.77 K, Liquid | 254
304.09 K, Liquid | 255.2
305.41 K, Liquid | 256.63
306.73 K, Liquid | 258.11
308.04 K, Liquid | 259.35
309.35 K, Liquid | 260.74
